Source: PubChem BioAssay AID256 (DTP/NCI, 2004)
Values joined by “and” are separate entries in the source; they are usually repeats but may differ in a detail not shown here. Equal entries are not always repeated. Inconclusive results and toxic doses are left out. The calls were made as follows: active = survival T/C of 150% or more; inactive = T/C below 125% in these data.

System: CD2F1 mice, L1210 leukemia ip, survival T/C
Experiment: NCI In Vivo Anticancer Drug Screen. Data for tumor model L1210 Leukemia (intraperitoneal) in CD2F1 (CDF1) mice
Conditions: endpoint: mean survival time, higher = longer survival
Outline: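 Tumor-bearing mice (transplanted tumor) were split into treated and vehicle control groups, and the measured endpoint of each treated group was divided by that of its vehicle controls.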

[1] = dose: 100.0 mg/kg/injection, schedule: Q04DX003 (ip), vehicle: saline with Tween-80
[2] = dose: 200.0 mg/kg/injection, schedule: Q04DX003 (ip), vehicle: saline with Tween-80
[3] = dose: 400.0 mg/kg/injection, schedule: Q04DX003 (ip), vehicle: saline with Tween-80
[4] = dose: 100.0 mg/kg/injection, schedule: Q01DX009 (ip), vehicle: saline with Tween-80
[5] = dose: 200.0 mg/kg/injection, schedule: Q01DX009 (ip), vehicle: saline with Tween-80
[6] = dose: 100.0 mg/kg/injection, schedule: Q04DX003 (ip), vehicle: saline
[7] = dose: 200.0 mg/kg/injection, schedule: Q04DX003 (ip), vehicle: saline
[8] = dose: 100.0 mg/kg/injection, schedule: Q04DX002 (ip), vehicle: saline with Tween-80
[9] = dose: 200.0 mg/kg/injection, schedule: Q04DX002 (ip), vehicle: saline with Tween-80
[10] = dose: 400.0 mg/kg/injection, schedule: Q04DX002 (ip), vehicle: saline with Tween-80
[11] = dose: 400.0 mg/kg/injection, schedule: Q01DX009 (ip), vehicle: saline with Tween-80
[12] = dose: 100.0 mg/kg/injection, schedule: Q01DX009 (ip), vehicle: saline sonified
[13] = dose: 200.0 mg/kg/injection, schedule: Q01DX009 (ip), vehicle: saline sonified
[14] = dose: 400.0 mg/kg/injection, schedule: Q01DX009 (ip), vehicle: saline sonified
[15] = dose: 100.0 mg/kg/injection, schedule: Q01DX001 (ip), vehicle: saline with Tween-80
[16] = dose: 200.0 mg/kg/injection, schedule: Q01DX001 (ip), vehicle: saline with Tween-80
[17] = dose: 400.0 mg/kg/injection, schedule: Q01DX001 (ip), vehicle: saline with Tween-80

Measured: T/C

Nc1n[nH]c2cc(=O)[nH]c(O)c12
inactive: dose: 75.0 mg/kg/injection, schedule: Q01DX009 (ip), vehicle: saline 97 % of control | dose: 75.0 mg/kg/injection, schedule: Q04DX003 (ip), vehicle: saline 106 % of control | dose: 150.0 mg/kg/injection, schedule: Q01DX009 (ip), vehicle: saline 103 % of control | dose: 150.0 mg/kg/injection, schedule: Q04DX003 (ip), vehicle: saline 102 % of control | dose: 300.0 mg/kg/injection, schedule: Q01DX009 (ip), vehicle: saline 111 % of control | dose: 300.0 mg/kg/injection, schedule: Q04DX003 (ip), vehicle: saline 106 % of control

CC(C)c1cc(C(C)C)n2nc(N)nc2n1
inactive: [1] 106 % of control | [2] 98 % of control | [3] 97 % of control

COc1ccc2nc3c4ccccc4scc-3c2c1
inactive: dose: 25.0 mg/kg/injection, schedule: Q01DX009 (ip), vehicle: Klucel (hydroxypropylcellulose) (HPC) 109 % of control | dose: 50.0 mg/kg/injection, schedule: Q01DX009 (ip), vehicle: Klucel (hydroxypropylcellulose) (HPC) 97 % of control | dose: 100.0 mg/kg/injection, schedule: Q01DX009 (ip), vehicle: Klucel (hydroxypropylcellulose) (HPC) 110 % of control

O=C(Nc1cc(Cl)c(Cl)cc1Cl)C1CC1
inactive: dose: 50.0 mg/kg/injection, schedule: Q01DX009 (ip), vehicle: saline with Tween-80 119 % of control | [4] 101 % of control | [5] 101 % of control

C=CCNC(N)=O
inactive: [6] 94 % of control | [7] 93 % of control

O=C1OC(/C=C\c2ccccc2)=NC/1=C\c1cc(Br)cc(Br)c1O
inactive: [8] 94 % of control | [9] 98 % of control | [10] 105 % of control

CC(N(N=O)c1cccc(Cl)c1)S(=O)(=O)O (stereo not given)
inactive: [8] 101 % of control | [9] 97 % of control | [10] 86 % of control

Cc1cc(C)c(CN)cc1CN
inactive: dose: 25.0 mg/kg/injection, schedule: Q04DX003 (ip), vehicle: saline with Tween-80 91 % of control | dose: 50.0 mg/kg/injection, schedule: Q04DX003 (ip), vehicle: saline with Tween-80 88 % of control | [1] 96 % of control

CCCc1cc(C(C)=O)c[n+](C2OC(COC(=O)c3ccccc3)C(OC(=O)c3ccccc3)C2O)c1 (stereo not given)
inactive: dose: 3.13 mg/kg/injection, schedule: Q01DX005 (ip), vehicle: distilled water + Tween-80 109 % of control | dose: 6.25 mg/kg/injection, schedule: Q01DX005 (ip), vehicle: distilled water + Tween-80 92 % of control | dose: 12.5 mg/kg/injection, schedule: Q01DX005 (ip), vehicle: distilled water + Tween-80 93 % of control | dose: 25.0 mg/kg/injection, schedule: Q01DX005 (ip), vehicle: distilled water + Tween-80 89 % of control | dose: 50.0 mg/kg/injection, schedule: Q01DX005 (ip), vehicle: distilled water + Tween-80 90 % of control and 97 % of control

NNc1ccc(-c2ccc(NN)cc2)cc1
inactive: [4] 101 % of control | [5] 95 % of control | [11] 96 % of control

COC(=O)c1ccc(OCc2ccccc2)c([N+](=O)[O-])c1
inactive: dose: 100.0 mg/kg/injection, schedule: Q01DX001 (ip), vehicle: saline sonified 98 % of control | [4] 105 % of control | dose: 200.0 mg/kg/injection, schedule: Q01DX001 (ip), vehicle: saline sonified 96 % of control | [5] 97 % of control | dose: 400.0 mg/kg/injection, schedule: Q01DX001 (ip), vehicle: saline sonified 95 % of control | [11] 105 % of control

CC(=O)Nc1nc(N)nc2nonc12
inactive: dose: 12.5 mg/kg/injection, schedule: Q01DX005 (ip), vehicle: saline with Tween-80 100 % of control | dose: 25.0 mg/kg/injection, schedule: Q01DX005 (ip), vehicle: saline with Tween-80 98 % of control | dose: 50.0 mg/kg/injection, schedule: Q01DX005 (ip), vehicle: saline with Tween-80 100 % of control | dose: 100.0 mg/kg/injection, schedule: Q01DX005 (ip), vehicle: saline with Tween-80 96 % of control | dose: 200.0 mg/kg/injection, schedule: Q01DX005 (ip), vehicle: saline with Tween-80 93 % of control

Cc1cccc([N+](=O)[O-])c1-c1ccccc1C(=O)O
inactive: dose: 100.0 mg/kg/injection, schedule: Q01DX001 (ip), vehicle: Klucel (hydroxypropylcellulose) (HPC) 101 % of control | dose: 200.0 mg/kg/injection, schedule: Q01DX001 (ip), vehicle: Klucel (hydroxypropylcellulose) (HPC) 101 % of control | dose: 400.0 mg/kg/injection, schedule: Q01DX001 (ip), vehicle: Klucel (hydroxypropylcellulose) (HPC) 101 % of control

CN1CC(O)(C(O)C(O)C(O)CO)SC1=S (stereo not given)
inactive: [12] 98 % of control | [1] 100 % of control | [13] 101 % of control | [2] 93 % of control | [14] 109 % of control | [3] 89 % of control

ClC1=C(Cl)C2(Cl)C3C4CCC(C4)C3C1(Cl)C2(Cl)Cl (stereo not given)
inactive: [4] 95 % of control and 107 % of control | [5] 93 % of control and 111 % of control | [11] 96 % of control and 105 % of control

CN1CCC(CO)C1 (stereo not given)
inactive: dose: 25.0 mg/kg/injection, schedule: Q01DX009 (ip), vehicle: water 91 % of control | dose: 50.0 mg/kg/injection, schedule: Q01DX009 (ip), vehicle: saline 109 % of control | dose: 50.0 mg/kg/injection, schedule: Q01DX009 (ip), vehicle: water 87 % of control | dose: 100.0 mg/kg/injection, schedule: Q01DX009 (ip), vehicle: saline 101 % of control | dose: 100.0 mg/kg/injection, schedule: Q01DX009 (ip), vehicle: water 87 % of control | [6] 96 % of control | dose: 200.0 mg/kg/injection, schedule: Q01DX009 (ip), vehicle: saline 101 % of control | dose: 200.0 mg/kg/injection, schedule: Q01DX009 (ip), vehicle: water 89 % of control | [7] 97 % of control

FC(F)(F)c1cccc(NC2=NCCS2)c1
inactive: dose: 12.5 mg/kg/injection, schedule: Q01DX001 (ip), vehicle: saline with Tween-80 106 % of control | dose: 25.0 mg/kg/injection, schedule: Q01DX001 (ip), vehicle: saline with Tween-80 110 % of control | dose: 50.0 mg/kg/injection, schedule: Q01DX001 (ip), vehicle: saline with Tween-80 101 % of control | [15] 110 % of control | [16] 106 % of control | [17] 105 % of control

CCCCOS(=O)OCCCC
inactive: [15] 106 % of control | [16] 102 % of control | [17] 97 % of control

COC(=O)c1ccc(C(=O)OC)cc1
inactive: [4] 95 % of control | [1] 93 % of control | [5] 98 % of control | [2] 104 % of control | [11] 95 % of control | [3] 101 % of control

CSc1ccc(OC(=O)Nc2ccccc2F)cc1
inactive: [1] 101 % of control | [2] 112 % of control

NC(=O)COc1c(I)cc(I)cc1I
inactive: [12] 101 % of control | [1] 98 % of control | [13] 92 % of control | [2] 98 % of control | [14] 89 % of control | [3] 96 % of control

CC(=O)CC(C)=Nc1cccc(Cl)c1
inactive: [8] 98 % of control | [9] 95 % of control | [10] 95 % of control

O=C(O)C1C2C=CC(C2)C1C(=O)Nc1ccccc1 (stereo not given)
inactive: [4] 97 % of control | [5] 97 % of control | [11] 96 % of control
